Laboratory results reported in patent publication US20060134097A1, “Process for production of aqueous colloid of graphite silica particles emitting far-infrared rays” (priority 2004, published 2006).

Assays:
[1] = test system: Tyrosinase derived from mushroom; experiment: tyrosinase activity inhibition; assay type: biochemical; conditions: control agents
Procedure: The above aqueous colloid (conc) of the present invention as a basic material, and ascorbic acid and hydroquinone as control agents were used. Tyrosinase used that derived from mushroom (from Sigma Co., Ltd.: 2,500 U/mg). Specifically, for testing an inhibiting effect against tyrosinase activity, 4 kinds of solutions were prepared. (1) a tyrosine solution (0.5 mg/ml); 0.5 ml loading, (2) a 1/15 M phosphate buffer (pH 6.8); 2.0 ml loading, (3) a tyrosine solution (6.0 mg/100 ml); 0.5 ml loading, and (4) a test solution: the nanocolloid particle and/or the aqueous colloid of the present invention, ascorbic acid, or hydroquinone (0.005, 0.01, 0.05, 0.1, 0.5 mg) dissolved in buffer; 2.0 ml loading. The solutions of (1) to (4) were mixed to incubate at 37° C. for one hour, followed by the measurement of absorbance (At) at 475 nm. In addition, the absorbance obtained by adding the phosphate buffer (2 ml) in place of each test solution to carry out the same operation (Ab) was used as control to determine an inhibition rate. The inhibition rate was calculated from the resultant Ab and At values using the formula: inhibition rate=(Ab−At)/Ab×100.

[2] = test system: writhing reaction induced by acetic acid in mice; experiment: acetic acid-induced writhing reaction; assay type: in vivo; conditions: count over 10 minutes from 10 minutes after 0.7% acetic acid i.p.; s.c. 30 minutes before: aspirin 300 mg/kg, colloid 0.1 ml/10 g
From the text: Then, an analgesic effect of the aqueous colloid of the present invention in mice was studied using a writhing reaction induced by acetic acid. In the observation of the behavior of twisting in response e.g. to a pain due to acetic acid irritation in the peritoneal cavity (writhing), when the administration of an agent suppresses the writhing reaction, the agent can be said to have depressed pseudo affective response, assessing it as having an anti-nociceptive effect. 1) ddy strain male mice (7-week old; 27 to 38 g; 6 mice per group); 2) drug solution: aspirin in 0.1 M Tris-Hydrochloride buffer as a solvent (pH 7.8); […] 4) the aqueous colloid of the present invention: 100 ml of the nanocolloid of the present invention to which 0.9 g of sodium chloride was added to make an isotonicsolution. 1) dividing mice into 3 groups to subcutaneously administer, to an aspirin (300 mg/kg) treatment group, the aspirin solution, the Tris-Hydrochloride buffer to a control group, and the aqueous nanocolloid (0.1 ml/10 g) to the remaining group; […] 3) starting to count the frequency of writhing 10 minutes after the administration of the acetic acid and recording a frequency of writhing during a period of 10 minutes. (See FIG. 10)

| tyrosinase activity [1] | SMILES | frequency of writhing [2] |
| --- | --- | --- |
| inhibited the tyrosinase activity | O=C1O[C@H]([C@@H](O)CO)C(O)=C1O [ascorbic acid] |  |
|  | CC(=O)Oc1ccccc1C(=O)O [aspirin] | 10.5±1.2 |
| inhibited the tyrosinase activity | Oc1ccc(O)cc1 [hydroquinone] |  |
